# Experimental data: patent publication EP0341681B1, “6-Phenoxymethyl-4-hydroxytetrahydropyran-2-ones and 6-thiophenoxymethyl-4-hydroxytetrahydropyran-2-ones, the corresponding dihydrocarboxylic-acid derivatives, salts and esters, process for preparing these compounds, their use as medicines, pharmaceutical compositions and phenols and thiophenols” (HOECHST AKTIENGESELLSCHAFT, priority 1988, dated 1989)
# Where two headings read alike, the source gives them in different places.
# Key:
# HMG-CoA-Reduktase = target: T1, HMG-CoA-Reduktase (Rattus norvegicus, UniProt P51639); experiment: Inhibition of HMG-CoA reductase activity in solubilised enzyme preparations from rat liver microsomes; assay type: biochemical, Ratten; settings: sodium salts of the dihydroxycarboxylic acids of formula II; substrate (S,R) 14C-HMG-CoA; mean of 3 parallel samples; read-out: IC₅₀
# T1 construct: solubilisierten Enzympräparationen aus Ratten-Lebermikrosomen; from tissue; host or cells: rat liver microsomes (cholestyramine-induced rats)
# T1 sequence (P51639 1-887): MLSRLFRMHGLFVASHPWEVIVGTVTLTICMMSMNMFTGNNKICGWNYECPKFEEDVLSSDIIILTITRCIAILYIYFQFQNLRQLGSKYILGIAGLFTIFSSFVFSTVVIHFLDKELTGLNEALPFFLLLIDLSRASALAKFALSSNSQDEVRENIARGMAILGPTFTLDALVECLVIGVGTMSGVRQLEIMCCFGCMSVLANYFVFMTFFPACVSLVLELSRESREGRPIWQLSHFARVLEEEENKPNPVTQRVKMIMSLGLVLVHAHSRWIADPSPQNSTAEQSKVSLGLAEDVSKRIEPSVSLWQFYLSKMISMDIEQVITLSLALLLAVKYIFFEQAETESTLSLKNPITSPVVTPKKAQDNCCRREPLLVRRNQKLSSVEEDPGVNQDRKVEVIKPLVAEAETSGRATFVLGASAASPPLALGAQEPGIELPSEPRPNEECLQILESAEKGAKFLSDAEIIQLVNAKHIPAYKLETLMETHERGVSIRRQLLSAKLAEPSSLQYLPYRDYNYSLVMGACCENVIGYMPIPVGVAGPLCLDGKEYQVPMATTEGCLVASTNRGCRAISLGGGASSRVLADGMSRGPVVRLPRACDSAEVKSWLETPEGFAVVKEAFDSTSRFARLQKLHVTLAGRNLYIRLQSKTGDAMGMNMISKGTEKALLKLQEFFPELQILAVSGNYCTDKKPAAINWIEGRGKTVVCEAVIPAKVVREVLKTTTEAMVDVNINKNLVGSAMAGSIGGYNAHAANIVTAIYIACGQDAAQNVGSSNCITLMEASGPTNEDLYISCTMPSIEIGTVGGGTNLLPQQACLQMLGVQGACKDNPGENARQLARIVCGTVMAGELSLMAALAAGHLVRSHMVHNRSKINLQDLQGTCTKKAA
# From the text: Die HMG-CoA-Reduktase-Aktivität der Natriumsalze der erfindungsgemäßen Verbindungen der Formel II wurde in zwei Testsystemen bestimmt 1) Inhibierung der HMG-CoA-Reduktase-Aktivität an solubilisierten Enzympräparationen aus Ratten-Lebermikrosomen Die HMG-CoA-Reduktase-Aktivität wurde an solubilisierten Enzympräparationen aus Lebermikrosomen von Ratten gemessen, die nach Umstellung im Tag-Nacht-Rhythmus mit Cholestyramin (®Cuemid) induziert wurden. Als Substrat diente (S,R) ¹⁴C-HMG-CoA, die Konzentration von NADPH wurde während der Inkubation durch ein regenerierendes System aufrechterhalten. Die Abtrennung von ¹⁴C-Mevalonat von Substrat und anderen Produkten (z.B. ¹⁴C-HMG) erfolgte über Säulenelution, wobei das Elutionsprofil jeder Einzelprobe ermittelt wurde. Auf die ständige Mitführung von ³H-Mevalonat wurde verzichtet, weil es sich bei der Bestimmung um die Relativangabe der Hemmwirkung handelt. In einer Versuchsreiche wurden jeweils die enzymfreie Kontrolle, der enzymhaltige Normalansatz (= 100 %) und solche mit Präparatezusätzen zusammen behandelt. Jeder Einzelwert wurde als Mittelwert aus 3 Parallelproben gebildet. Die Signifikanz der Mittelwertsunterschiede zwischen präparatefreien und präparatehaltigen Proben wurde nach dem t-Test beurteilt. Nach der oben beschriebenen Methode wurden von den erfindungsgemäßen Verbindungen z.B. folgende Hemmwerte auf die HMG-CoA-Reduktase ermittelt (IC₅₀- (mol/l); molare Konzentration der Verbindung pro Liter, die für eine 50 %ige Hemmung erforderlich ist) Tabelle 1
# [1] = target: T2, HMG-CoA-Reduktase in HEP G2-Zellkulturen (Homo sapiens, UniProt P04035); experiment: Inhibition of 14C-sodium acetate incorporation into cholesterol in HEP G2 cell cultures; assay type: cell-based; settings: for IC70: HepG2, 3 h, read-out: IC₇₀; for relative Wirkstärke: Mevinolin-Natrium = 100
# T2 sequence (P04035 1-888): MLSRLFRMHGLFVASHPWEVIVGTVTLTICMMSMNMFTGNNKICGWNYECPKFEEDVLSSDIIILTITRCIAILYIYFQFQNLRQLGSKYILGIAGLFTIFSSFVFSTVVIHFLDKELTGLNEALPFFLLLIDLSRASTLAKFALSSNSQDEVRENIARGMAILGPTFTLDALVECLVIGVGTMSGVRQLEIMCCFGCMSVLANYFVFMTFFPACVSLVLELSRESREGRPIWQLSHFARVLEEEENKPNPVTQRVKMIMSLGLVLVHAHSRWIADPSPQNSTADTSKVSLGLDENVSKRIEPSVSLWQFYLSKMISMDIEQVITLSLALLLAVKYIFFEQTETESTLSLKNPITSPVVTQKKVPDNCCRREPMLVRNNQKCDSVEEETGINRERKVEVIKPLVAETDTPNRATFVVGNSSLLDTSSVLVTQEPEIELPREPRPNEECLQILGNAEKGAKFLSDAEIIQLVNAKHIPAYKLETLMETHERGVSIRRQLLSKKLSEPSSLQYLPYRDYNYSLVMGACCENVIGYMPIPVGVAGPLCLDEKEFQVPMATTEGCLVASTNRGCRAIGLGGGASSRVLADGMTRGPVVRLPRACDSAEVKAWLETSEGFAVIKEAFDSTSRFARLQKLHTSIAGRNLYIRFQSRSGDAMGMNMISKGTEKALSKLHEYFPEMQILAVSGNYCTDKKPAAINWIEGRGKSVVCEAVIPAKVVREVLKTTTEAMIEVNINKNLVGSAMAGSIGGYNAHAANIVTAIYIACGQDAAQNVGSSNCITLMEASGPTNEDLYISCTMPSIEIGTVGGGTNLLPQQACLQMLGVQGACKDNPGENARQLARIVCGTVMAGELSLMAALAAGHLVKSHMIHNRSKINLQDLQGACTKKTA
# From the text: 2) Supprimierung bzw. Inhibierung der HMG-CoA-Reduktase in HEP G2-Zellkulturen (einer Human-Hepatoma-Zell-Linie) Es erfolgte eine Bestimmung der Inhibition des Einbaus von ¹⁴C-Natriumacetat in Cholesterin. Monolayers von HEP G2-Zellen in RPMJ 1640 Medium mit 10 % von Lipiden befreitem fötalem Kälberserum wurden 1 Stunde mit verschiedenen Konzentrationen der Natriumsalze der Dihydroxycarbonsäuren der Formel II präinkubiert. Nach Zugabe von ¹⁴C-markiertem Natriumacetat wurde die Inkubation 3 Std. fortgesetzt. Tritium-markiertes Cholesterin wurde als interner Standard zugefügt und ein Aliquot der Zellen alkalisch verseift. Die Lipide wurden mit Chloroform/Methanol 2:1 extrahiert. Nach Zugabe von Carrier-Cholesterin wurde das Lipidgemisch präparativ auf DC-Platten mit Chloroform/Aceton 9:1 getrennt. Die Cholesterin-Zone wurde durch Anfärben mit Joddampf sichtbar gemacht, außerdem mit einem DC-Radioscanner detektiert und dann abgeschabt. Die Menge ¹⁴C-Cholesterin wurde szintigraphisch bestimmt. In einem anderen Aliquot der Zell-Monolayers wurde (zur Berechnung der ¹⁴C-Cholesterinbiosynthese pro mg Zell-Protein) das Zellprotein gemessen. Dieselbe Prozedur wurde mit Zellen der gleichen Kultur ohne Präinkubation mit einer Testverbindung durchgeführt (sogenannte "Lösungsmittelkontrolle"). Die Wirkstärke der Testverbindungen wurde bestimmt durch Vergleich des biosynthetisierten ¹⁴C-Cholesterins in Testläufen und bei "Lösungsmittelkontrolle". Die Wirkstärke wurde auf der Basis von Mevinolin-Natriumsalz als externer Standard berechnet. […] Die gemessenen IC's für Testverbindungen (Natriumsalze der Dihydroxycarbonsäuren der Formel II) (Tab. 2) wurden um die Abweichung von Mevinolin-Natrium von seinem Durchschnittswert korrigiert. Mevinolin-Natrium wurde eine relative Wirkstärke von 100 zugewiesen.
# [2] = value outside parentheses (matches ratio of IC50 values)
IC50 (HMG-CoA-Reduktase) [nM],"relative Wirkstärke [1, 2]","IC70 ([1]; mean value over different cell batches, external standard) [nM]",Compound,"IC70 ([1]; concentration for 70 % inhibition, sodium salts, corrected for the deviation of Mevinolin-Natrium from its mean value) [nM]",relative Wirkstärke ([1]; value in parentheses (matches ratio of IC70 values))
> 100,< 1,,"CC(C)c1cc(C(C)(C)C)cc(-c2ccc(F)cc2)c1OC[C@@H](O)C[C@@H](O)CC(=O)O [Beispiel 8b, 3(R),5(S)-Dihydroxy-6-[2-isopropyl-4-tert.-butyl-6-(4-fluorphenyl)-phenoxy]-hexansäure-Natriumsalz]",,
17,56,,"CC(C)c1cc(-c2ccc(F)cc2)cc(-c2ccc(F)cc2)c1OC[C@@H](O)C[C@@H](O)CC(=O)O [Beispiel 8c, 3(R),5(S)-Dihydroxy-6-[2-isopropyl-4,6-bis-(4-fluorphenyl)-phenoxy]-hexansäure-Natriumsalz]",,
23,53,,"CC(C)c1cc(-c2ccccc2)cc(-c2ccc(F)cc2)c1OC[C@@H](O)C[C@@H](O)CC(=O)O [Beispiel 8d, 3(R),5(S)-Dihydroxy-6-[2-isopropyl-4-phenyl-6-(4-fluorphenyl)-phenoxy-]-hexansäure-Natriumsalz]",,
5.2,,,"CC(C)c1cc(C2CCCCC2)cc(-c2ccc(F)cc2)c1OC[C@@H](O)C[C@@H](O)CC(=O)O [Beispiel 8e, 3(R),5(S)-Dihydroxy-6-[2-isopropyl-4-cyclohexyl-6-(4-fluorphenyl)-phenoxy]-hexansäure-Natriumsalz]",,
4.8,,,"CC(C)c1cc(-c2ccc(F)cc2)c(SC[C@@H](O)C[C@@H](O)CC(=O)O)c(C(C)C)c1 [Beispiel 8f, 3(R),5(S)-Dihydroxy-6-[2-(4-fluorphenyl)-4,6-diisopropylthiophenoxy]-hexansäure-Natriumsalz]",,
36,,,"CC(C)c1cc(-c2ccc(F)cc2)cc(-c2ccc(F)cc2)c1SC[C@@H](O)C[C@@H](O)CC(=O)O [Beispiel 8g, 3(R),5(S)-Dihydroxy-6-[2-isopropyl-4,6-bis-(4-fluorphenyl)-thiophenoxy]-hexansäure-Natriumsalz]",,
,,150,"CCC(C)C(=O)OC1CC(C)C=C2C=CC(C)C(CCC(O)CC(O)CC(=O)O)C21 (centres unmarked) [Mevinolin-Natriumsalz, reference compound]",,

Compound,IC50 (HMG-CoA-Reduktase) [nM],"relative Wirkstärke [1, 2]","IC70 ([1]; mean value over different cell batches, external standard) [nM]","IC70 ([1]; concentration for 70 % inhibition, sodium salts, corrected for the deviation of Mevinolin-Natrium from its mean value) [nM]",relative Wirkstärke ([1]; value in parentheses (matches ratio of IC70 values))
"CC(C)c1cc(-c2ccc(F)cc2)c(OC[C@@H](O)C[C@@H](O)CC(=O)O)c(C(C)C)c1 [Beispiel 8a, 3(R),5(S)-Dihydroxy-6-[2-(4-fluorphenyl)-4,6-diisopropylphenoxy]-hexansäure-Natriumsalz]",2.3,185,,70,214
